PubChem BioAssay AID256 (DTP/NCI, 2004)
Values joined by “and” are separate entries in the source; they are usually repeats but may differ in a detail not shown here. Equal entries are not always repeated. Inconclusive results and toxic doses are left out. The calls were made as follows: active = survival T/C of 150% or more; inactive = T/C below 125% in these data.

Tested on: CD2F1 mice, L1210 leukemia ip, survival T/C
Assay: NCI In Vivo Anticancer Drug Screen. Data for tumor model L1210 Leukemia (intraperitoneal) in CD2F1 (CDF1) mice
Details: higher = longer survival
Outline: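 Implant tumor; dose compound or vehicle; measure endpoint in both groups; report treated divided by control.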

[1] = endpoint: mean survival time, dose: 12.5 mg/kg/injection, schedule: Q01DX009 (ip), vehicle: saline with Tween-80
[2] = endpoint: mean survival time, dose: 25.0 mg/kg/injection, schedule: Q01DX009 (ip), vehicle: saline with Tween-80
[3] = endpoint: mean survival time, dose: 50.0 mg/kg/injection, schedule: Q01DX009 (ip), vehicle: saline with Tween-80
[4] = endpoint: mean survival time, dose: 100.0 mg/kg/injection, schedule: Q01DX009 (ip), vehicle: saline with Tween-80
[5] = endpoint: median survival time, dose: 100.0 mg/kg/injection, schedule: Q01DX009 (ip), vehicle: saline with Tween-80
[6] = endpoint: mean survival time, dose: 200.0 mg/kg/injection, schedule: Q01DX009 (ip), vehicle: saline with Tween-80
[7] = endpoint: mean survival time, dose: 50.0 mg/kg/injection, schedule: Q04DX003 (ip), vehicle: saline with Tween-80
[8] = endpoint: mean survival time, dose: 100.0 mg/kg/injection, schedule: Q04DX003 (ip), vehicle: saline with Tween-80
[9] = endpoint: mean survival time, dose: 200.0 mg/kg/injection, schedule: Q04DX003 (ip), vehicle: saline with Tween-80
[10] = endpoint: mean survival time, dose: 400.0 mg/kg/injection, schedule: Q04DX003 (ip), vehicle: saline with Tween-80

Measured: T/C

NCCSc1ccccc1
inactive: [1] 89 % of control | [2] 89 % of control | [3] 90 % of control and 108 % of control | [4] 87 % of control and 98 % of control

CNC(=O)n1c(N)nc(-c2ccccc2)c1-c1ccccc1
inactive: endpoint: median survival time, dose: 6.25 mg/kg/injection, schedule: Q01DX009 (ip), vehicle: saline with Tween-80 101 % of control | endpoint: median survival time, dose: 12.5 mg/kg/injection, schedule: Q01DX009 (ip), vehicle: saline with Tween-80 103 % of control | endpoint: median survival time, dose: 25.0 mg/kg/injection, schedule: Q01DX009 (ip), vehicle: saline with Tween-80 114 % of control | endpoint: median survival time, dose: 50.0 mg/kg/injection, schedule: Q01DX009 (ip), vehicle: saline with Tween-80 119 % of control | [5] 98 % of control

CC(=O)Nc1ccccc1OC(=O)OCC(Cl)(Cl)Cl
inactive: [4] 96 % of control | [6] 96 % of control | endpoint: mean survival time, dose: 400.0 mg/kg/injection, schedule: Q01DX009 (ip), vehicle: saline with Tween-80 101 % of control

O=[N+]([O-])c1ccc(S(=O)Cc2ccccc2)c([N+](=O)[O-])c1 (stereo unspecified)
inactive: endpoint: mean survival time, dose: 75.0 mg/kg/injection, schedule: Q01DX001 (ip), vehicle: other 100 % of control

O=P(Nc1ccccc1)(OCc1ccccc1)N(CCCl)CCCl (stereo unspecified)
inactive: endpoint: mean survival time, dose: 62.5 mg/kg/injection, schedule: Q01DX010 (ip), vehicle: saline 104 % of control | endpoint: mean survival time, dose: 125.0 mg/kg/injection, schedule: Q01DX010 (ip), vehicle: saline 103 % of control | endpoint: mean survival time, dose: 250.0 mg/kg/injection, schedule: Q01DX010 (ip), vehicle: saline 101 % of control

c1ccc2c(c1)CN(C1CCCCC1)CO2
inactive: [3] 98 % of control | [4] 97 % of control | [6] 97 % of control

O=C(O)NNC(=O)NO
inactive: endpoint: mean survival time, dose: 100.0 mg/kg/injection, schedule: Q01DX009 (ip), vehicle: saline sonified 97 % of control | endpoint: mean survival time, dose: 200.0 mg/kg/injection, schedule: Q01DX009 (ip), vehicle: saline sonified 103 % of control | endpoint: mean survival time, dose: 400.0 mg/kg/injection, schedule: Q01DX009 (ip), vehicle: saline sonified 101 % of control

O=C(O)CC1CCC1CC(=O)O (stereo unspecified)
inactive: [3] 90 % of control | [4] 96 % of control and 100 % of control | [6] 96 % of control and 103 % of control

COCCN1CCC(C)(CO)C1 (stereo unspecified)
inactive: endpoint: mean survival time, dose: 100.0 mg/kg/injection, schedule: Q01DX009 (ip), vehicle: saline 94 % of control | endpoint: mean survival time, dose: 200.0 mg/kg/injection, schedule: Q01DX009 (ip), vehicle: saline 94 % of control | endpoint: mean survival time, dose: 400.0 mg/kg/injection, schedule: Q01DX009 (ip), vehicle: saline 100 % of control

NC(=O)SCCCCl
inactive: [4] 103 % of control | endpoint: mean survival time, dose: 118.0 mg/kg/injection, schedule: Q01DX009 (ip), vehicle: saline with Tween-80 106 % of control | endpoint: mean survival time, dose: 178.0 mg/kg/injection, schedule: Q01DX009 (ip), vehicle: saline with Tween-80 112 % of control | [6] 113 % of control | endpoint: mean survival time, dose: 266.0 mg/kg/injection, schedule: Q01DX009 (ip), vehicle: saline with Tween-80 124 % of control

O=c1c2ccccc2on1-c1ncnc2nc[nH]c12
inactive: endpoint: mean survival time, dose: 12.5 mg/kg/injection, schedule: Q01DX005 (ip), vehicle: other 105 % of control | endpoint: mean survival time, dose: 25.0 mg/kg/injection, schedule: Q01DX005 (ip), vehicle: other 113 % of control | endpoint: mean survival time, dose: 50.0 mg/kg/injection, schedule: Q01DX005 (ip), vehicle: other 111 % of control | endpoint: mean survival time, dose: 100.0 mg/kg/injection, schedule: Q01DX005 (ip), vehicle: other 95 % of control

CC1CCCN(CCSSCCN2CCCC(C)C2)C1 (stereo unspecified)
inactive: [1] 104 % of control | endpoint: mean survival time, dose: 12.5 mg/kg/injection, schedule: Q04DX003 (ip), vehicle: saline sonified 97 % of control | [2] 96 % of control | endpoint: mean survival time, dose: 25.0 mg/kg/injection, schedule: Q04DX003 (ip), vehicle: saline sonified 98 % of control | [3] 95 % of control | endpoint: mean survival time, dose: 50.0 mg/kg/injection, schedule: Q04DX003 (ip), vehicle: saline sonified 103 % of control

O=P(OCCCl)(OCCCl)C(Cl)Cl
inactive: endpoint: mean survival time, dose: 100.0 mg/kg/injection, schedule: Q01DX001 (ip), vehicle: saline 96 % of control | endpoint: mean survival time, dose: 200.0 mg/kg/injection, schedule: Q01DX001 (ip), vehicle: saline 100 % of control | endpoint: mean survival time, dose: 400.0 mg/kg/injection, schedule: Q01DX001 (ip), vehicle: saline 97 % of control

CS(=O)(=O)CC1C2CCC(CC2)C1CS(C)(=O)=O (stereo unspecified)
inactive: endpoint: mean survival time, dose: 100.0 mg/kg/injection, schedule: Q01DX001 (ip), vehicle: saline with Tween-80 93 % of control | endpoint: mean survival time, dose: 200.0 mg/kg/injection, schedule: Q01DX001 (ip), vehicle: saline with Tween-80 106 % of control | endpoint: mean survival time, dose: 400.0 mg/kg/injection, schedule: Q01DX001 (ip), vehicle: saline with Tween-80 92 % of control

CCCSCC
inactive: [2] 98 % of control | [3] 106 % of control | [4] 95 % of control and 96 % of control

O=S(=O)(Nc1cc(N2CCCCC2)c(NS(=O)(=O)c2ccccc2)cc1N1CCCCC1)c1ccccc1
inactive: endpoint: mean survival time, dose: 100.0 mg/kg/injection, schedule: Q01DX001 (ip), vehicle: Klucel (hydroxypropylcellulose) (HPC) 88 % of control | endpoint: mean survival time, dose: 200.0 mg/kg/injection, schedule: Q01DX001 (ip), vehicle: Klucel (hydroxypropylcellulose) (HPC) 98 % of control | endpoint: mean survival time, dose: 400.0 mg/kg/injection, schedule: Q01DX001 (ip), vehicle: Klucel (hydroxypropylcellulose) (HPC) 90 % of control

Oc1ccc(-c2ccc(O)cc2)cc1
inactive: [7] 100 % of control | [8] 101 % of control and 107 % of control | [9] 109 % of control | [10] 121 % of control

CC(C)c1cc(C(C)C)nc(NNc2nc(C(C)C)cc(C(C)C)n2)n1
inactive: [8] 102 % of control | [9] 100 % of control | [10] 100 % of control

COc1ccc(C(=O)CC(=O)Nc2ccc([N+](=O)[O-])cc2)cc1
inactive: endpoint: mean survival time, dose: 100.0 mg/kg/injection, schedule: Q01DX009 (ip), vehicle: Klucel (hydroxypropylcellulose) (HPC) 98 % of control | [8] 107 % of control | endpoint: mean survival time, dose: 200.0 mg/kg/injection, schedule: Q01DX009 (ip), vehicle: Klucel (hydroxypropylcellulose) (HPC) 97 % of control | [9] 102 % of control | endpoint: mean survival time, dose: 400.0 mg/kg/injection, schedule: Q01DX009 (ip), vehicle: Klucel (hydroxypropylcellulose) (HPC) 97 % of control | [10] 101 % of control

Cc1ccc(NC(=O)Oc2ccc(Br)cc2Br)c([N+](=O)[O-])c1
inactive: [7] 106 % of control | [8] 104 % of control | [9] 96 % of control | [10] 100 % of control | [5] 98 % of control | endpoint: median survival time, dose: 200.0 mg/kg/injection, schedule: Q01DX009 (ip), vehicle: saline with Tween-80 100 % of control | endpoint: median survival time, dose: 400.0 mg/kg/injection, schedule: Q01DX009 (ip), vehicle: saline with Tween-80 105 % of control | endpoint: median survival time, dose: 800.0 mg/kg/injection, schedule: Q01DX009 (ip), vehicle: saline with Tween-80 101 % of control
